Patent US20180008587A1, “THIOHYDANTOIN ANDROGEN RECEPTOR ANTAGONISTS FOR THE TREATMENT OF CANCER” (Jaressen Pharmaceutica NV, priority 2016, published 2018)

Target: T1, AR L701H (Homo sapiens, UniProt P10275, L702H)
T1 construct: expressed in transfected cells; host or cells: HepG2
T1 sequence (P10275 1-920 L702H): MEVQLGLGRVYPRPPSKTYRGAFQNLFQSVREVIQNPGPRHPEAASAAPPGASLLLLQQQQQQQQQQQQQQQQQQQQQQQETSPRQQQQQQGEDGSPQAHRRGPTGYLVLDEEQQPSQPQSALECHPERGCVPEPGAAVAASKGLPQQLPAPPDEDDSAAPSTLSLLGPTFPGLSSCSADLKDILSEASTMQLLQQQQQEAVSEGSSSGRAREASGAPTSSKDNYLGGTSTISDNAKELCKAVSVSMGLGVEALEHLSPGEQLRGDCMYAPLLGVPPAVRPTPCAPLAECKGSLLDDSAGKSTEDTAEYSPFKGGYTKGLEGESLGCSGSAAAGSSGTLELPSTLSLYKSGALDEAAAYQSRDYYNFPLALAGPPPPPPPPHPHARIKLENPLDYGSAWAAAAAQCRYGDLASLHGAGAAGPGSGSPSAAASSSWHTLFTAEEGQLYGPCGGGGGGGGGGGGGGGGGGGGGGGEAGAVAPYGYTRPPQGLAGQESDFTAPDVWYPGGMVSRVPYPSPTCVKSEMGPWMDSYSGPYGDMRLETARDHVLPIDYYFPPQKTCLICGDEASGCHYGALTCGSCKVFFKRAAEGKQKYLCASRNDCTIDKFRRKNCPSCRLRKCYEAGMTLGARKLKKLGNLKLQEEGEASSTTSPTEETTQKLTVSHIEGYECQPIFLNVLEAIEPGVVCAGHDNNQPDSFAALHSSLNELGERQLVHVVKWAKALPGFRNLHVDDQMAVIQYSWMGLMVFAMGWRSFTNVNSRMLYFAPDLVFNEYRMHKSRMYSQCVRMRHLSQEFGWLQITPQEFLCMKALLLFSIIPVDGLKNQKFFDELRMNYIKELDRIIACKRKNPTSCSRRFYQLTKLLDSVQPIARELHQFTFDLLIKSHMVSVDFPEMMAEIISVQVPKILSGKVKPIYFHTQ
Experiment: Luciferase transcriptional reporter assay, mutant AR, HepG2, antagonist mode
Format: cell-based
Details: HepG2, 90 pM R1881, 48 hours; * denotes incomplete inhibition (otherwise 100%); read-out: Antagonism; IC50, AR construct L701H
Protocol: HepG2 cells were maintained in EMEM supplemented with 10% FBS. One day before transfection, the media was changed to EMEM with 10% CSS. T-150 flasks were transiently transfected using 120 μL Lipofectamine 2000 (Life Technologies), 30 μg mutant cDNA (expression vector)—mutant cDNA tested were L701H, T877A, W741C and H874Y—and 40 μg 4×ARE-Luciferase (reporter vector) in OptiMEM and the flasks were incubated overnight. Cells were then trypsinized, counted and resuspended at 500,000 cells/mL. For agonist mode, the compounds of Formula (I) are serially diluted and 50 μL of the compound added per well. 50 μL of the cells are added to each well and incubated for 48 hours. For antagonist mode, a final concentration of 90 pM R1881 was added to the diluted compounds and incubated for 48 hours. The plates were then assayed using SteadyGlo and read on the Envision. Percent Stimulation and Inhibition is determined and analyzed using GraphPad Prism.
All values are calculated relative to the activity of R1881 induced androgen receptor activity (n≧3).

IC50: 3.36 µM
SMILES: N#Cc1ncc(N2C(=O)C3(CCC3)N(c3ccc(OC4CCNCC4)cc3)C2=S)cc1C(F)(F)F [Cpd 35, 5-[5-oxo-8-[4-(4-piperidyloxy)phenyl]-7-thioxo-6,8-diazaspiro[3.4]octan-6-yl]-3-(trifluoromethyl)pyridine-2-carbonitrile]
